From ChEMBL document CHEMBL4138259, “Discovery of JTZ-951: A HIF Prolyl Hydroxylase Inhibitor for the Treatment of Renal Anemia” (ACS Med Chem Lett, 2017)

Legend:
[1] = system: Mus musculus; assay: Upregulation of plasma EPO level in Balb/c mouse at 10 mg/kg, po administered as single dose measured after 8 hrs by ELISA; type: functional
[2] = in vitro; conditions: human, Caco-2
[3] = system: Rattus norvegicus; assay: Upregulation of plasma EPO level in CD(SD) rat at 10 mg/kg, po administered as single dose measured after 8 hrs by RIA; type: functional
[4] = system: Rattus norvegicus; assay: Toxicity in CD(SD) rat assessed as induction of anorexia at 100 mg/kg, po administered as single dose; type: organism-based; conditions: in vivo

Compound	Papp A→B at 2 h, 25 µM [2]	Activity [1]	Activity [3]	Activity [4]
Cl.O=C(O)CNC(=O)c1c(O)cc(CCc2ccccc2)c2ncnn12	9.3 ×10⁻⁶ cm/s	<320 pg/mL		
Cl.O=C(O)CNC(=O)c1c(O)ccn2cnnc12	< 0.4 ×10⁻⁶ cm/s			
O=C(O)CNC(=O)c1c(O)cc(-c2cccc(Cl)c2)c2ncnn12	15 ×10⁻⁶ cm/s	<265 pg/mL		
Cl.O=C(O)CNC(=O)c1c(O)ccn2ncnc12	0.86 to 0.9 ×10⁻⁶ cm/s			
CCCCCc1cc(O)c(C(=O)NCC(=O)O)c2ncnn12.Cl	20 ×10⁻⁶ cm/s	2300 pg/mL	11000 pg/mL	Toxic
Cl.O=C(O)CNC(=O)c1c(O)ccc2ncnn12	0.4 ×10⁻⁶ cm/s			
O=C(O)CNC(=O)c1c(O)ccn2ccnc12	0.8 ×10⁻⁶ cm/s			

The next lines start with results.

Papp A→B at 2 h, 25 µM [2]	Compound	Activity [1]	Activity [3]	Activity [4]
12 ×10⁻⁶ cm/s	Cl.O=C(O)CNC(=O)c1c(O)cc(CCc2ccc(F)cc2)n2ncnc12	1000 pg/mL		
15 ×10⁻⁶ cm/s	CCCCCc1cn2ncnc2c(C(=O)NCC(=O)O)c1O.Cl	<330 pg/mL		
6.5 ×10⁻⁶ cm/s	Cl.O=C(O)CNC(=O)c1c(O)cc(-c2ccccc2)c2ncnn12	<260 pg/mL		
